Data: patent publication US8618178B2, “Method and substances for treating T-cell mediated autoimmune diseases” (Eberhard-Karls-Universitaet Tuebingen Universitaetsklinikum, priority 2006, dated 2013)

Key:
Type in all cases: cell-based, mouse
BMDC = assay: Measurement of reactive oxygen species (ROS) in DC with dichlorofluorescein, flow cytometry; details: for effect on DMF-induced ROS increase in DC: added to DMF, 1 mM
Procedure: For the measurement of reactive oxygen species (ROS) in DC and APC, the fluorescent dye 2′,7′ dichlorofluorescein (H2 DCFDA, Molecular Probes, Eugene, USA) was used. 5×10^5 DC were preincubated in 1 ml of RPMI medium (without mercaptoethanol) for 60 mins at 37° C. in the incubator with 1% DMSO or 10 μg/ml DMF+/−NAC (1 mM) or GSX (1 mM). After this preincubation, 1 μM/ml H2 DCFDA was added and the cells incubated for a further 30 mins at 37° C. Within one hour, the fluorescence produced was detected using flow cytometry (FL1).
(§1) As antigen presenting cells (APC), T cell depleted spleen cells from syngenic mice were used. Dendritic cells (DC) which were obtained from bone marrow (BMDC) and cultured with GM-CSF were used for the relevant experiments on day 7 of culturing. For the experiment, in each case an equal number of APC were cultured either with the medium alone, with L-BSO (C8H18N2O3S, 0.5 mM), dimethyl sulfoxide DMSO(C2H6OS), dimethyl fumarate DMF (C6H8O4, dissolved in DMSO, 70 μM), or calcium monomethyl fumarate (MMF; CaC10H10O8, 200 μM). All substances except for MMF (Fumapharm) were purchased from Sigma-Aldrich. At the respective stated times (see below) the cells were either analyzed directly for their GSH content, used for T cell stimulation or stimulated for IL-2 production with Escherichia coli lipopolysaccharides 055.B5 (Sigma-Aldrich) or CpG-DNA 1668 (MWG Biotech) and IL-4 (Stratmann). In order to raise the GSH level again, 1 mM GSH-OEt (C12H21N3O6S; Sigma-Aldrich) or 1 mM NAC (Sigma-Aldrich) was added.
For testing the potential of pharmaceutical substances to induce the ROS, the following procedure was developed: for the measurement of reactive oxygen species (ROS) in cells, the fluorescent dye 2′,7′ dichlorofluorescein (H2 DCFDA) is used. The absorption spectrum of the substance is 492-495 nm and the emission spectrum lies in the range between 517-527 nm. On induction of cell stress, e.g., by the administration of ROS-causing reagents, oxidation of the H2 DCFDA to DCFDA+H2 occurs. The fluorescence arising as a result can be detected using flow cytometry (FL1).

IL-12 = IL-12 production by DC, ELISA of culture supernatants; details: for effect on IL-12 suppression caused by GSH depletion in DC: exogenous addition, 1 mM
Procedure: (§2) IL-4, IL-10, IL-12 and interferon-γ were determined using the ELISA (enzyme linked immunosorbent assay) set or with the use of individual components from BD BioSciences. IL-23 in the supernatant was determined using the ELISA set (eBioscience). For intracytoplasmic cytokine analyses, the T cells were restimulated with PMA/ionomycin or with APC and peptide in the presence of brefeldin A, then fixed and permeabilized and stained. For the surface staining, anti-CD4 or KJ1-26 antibodies were used; the cytokine antibodies (PE labeled) were all obtained from BD Pharmingen.
as §1, with “used for T cell stimulation or stimulated for IL-2 production with Escherichia coli lipopolysaccharides” left out

IL-23 = IL-23 production by DC, ELISA of culture supernatants; details: GSH-OEt added to DMF
Procedure: as §2
as §1, with “added. The GSH reservoirs in mice were depleted by feeding with DMF or MMF, and in man by treatment with Fumaderm®.” for “added.”

IL-10 = IL-10 production by DC, ELISA of culture supernatants; details: GSH-OEt added to DMF
Procedure: as §2
as §1, with “All substances except for MMF (Fumapharm) were purchased from Sigma-Aldrich.” left out, “In order to raise the GSH level again, 1 mM GSH-OEt (C12H21N3O6S; Sigma-Aldrich) or 1 mM NAC (Sigma-Aldrich) was added.” left out

CCOC(=O)CNC(=O)[C@H](CS)NC(=O)CC[C@H](N)C(=O)O [GSH-OEt, GSH ethyl ester]
effect on DMF-induced ROS increase in DC (BMDC): completely neutralized | effect on IL-12 suppression caused by GSH depletion in DC (IL-12): neutralized the IL-12 suppression | IL-23 production in DC, added to DMF (IL-23): restored IL-23 production | IL-10 production in DC, added to DMF (IL-10): decreased IL-10 production

OO [H2O2, hydrogen peroxide]
intracellular ROS in DC (BMDC; dichlorofluorescein, flow cytometry): induction of ROS | IL-12 production by DC (IL-12; after stimulation with LPS): lower the production of IL-12

CC(=O)N[C@@H](CS)C(=O)O [NAC, N-acetylcysteine]
effect on DMF-induced ROS increase in DC (BMDC): completely neutralized | effect on IL-12 suppression caused by GSH depletion in DC (IL-12): same effects as GSH-OEt
